Consider one compound from US4808584A, “Quinolinecarboxylic acid derivatives and antibacterial agent containing the same” (Kanebo, Ltd., priority 1987, dated 1989).

In brackets after ≈: the same amount, converted by molar mass.

The subject of assay [1] is Citrobacter freundii NIHJ 10018-68. The assay can be described thus: Minimum inhibitory concentration (MIC). In kind it is cell-based. The note with it: NIHJ10018; Citrobacter freundii NIHJ 10018-68, Gram -. Put shortly:
(§1)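 Test compounds were dissolved at 5000 μg/ml (stock) in 0.1N aqueous KOH or in sterilized distilled water, then diluted with sterile water to a 1000 μg/ml standard solution. MICs were determined by the Japan Society of Chemotherapy standard method.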

For assay [2], the system named is Enterobacter aerogenes ATCC 13048. The assay can be described thus: Minimum inhibitory concentration (MIC). It is filed as cell-based. Conditions: Klebsiella aerogenes, ATCC13048, Enterobacter aerogenes ATCC 13048, Gram -. Put shortly:
as §1

Assay [3] deals with Escherichia coli NIHJ JC-2. Briefly: Minimum inhibitory concentration (MIC). Conditions: NIHJJC2; Escherichia coli NIHJ JC-2, Gram -. In kind it is cell-based. Put shortly:
as §1

In assay [4] the test system is Proteus mirabilis IFO 3849. Briefly: Minimum inhibitory concentration (MIC). In kind it is cell-based. The note with it: IFO3849; Proteus mirabilis IFO 3849, Gram -. The essentials:
as §1

The subject of another assay is Proteus vulgaris OX-19. Briefly: Minimum inhibitory concentration (MIC). It is filed as cell-based. Conditions: OX19; Proteus vulgaris OX-19, Gram -; read-out: Minimum inhibitory concentration (MIC). The essentials: as §1
In assay [5] the test system is Pseudomonas aeruginosa E-2. The assay can be described thus: Minimum inhibitory concentration (MIC). It is filed as cell-based. The note with it: E2; Pseudomonas aeruginosa E-2, Gram -. Put shortly:
as §1

Assay [6] has as its system Salmonella typhimurium IID 971. Briefly: Minimum inhibitory concentration (MIC). In kind it is cell-based. The note with it: Salmonella enterica, Salmonella typhimurium IID 971, Gram -; read-out: Minimum inhibitory concentration (MIC). The essentials:
as §1

The test system of assay [7] is Serratia marcescens IAM 1184. The assay can be described thus: Minimum inhibitory concentration (MIC). It is filed as cell-based. The note with it: Serratia marcescens, IAM1184, Serratia marcescens IAM 1184, Gram -. Put shortly: as §1
Assay [8] relates to Staphylococcus aureus IID 803. Briefly: Minimum inhibitory concentration (MIC). In kind it is cell-based. The note with it: IID803; Staphylococcus aureus IID 803, Gram +; read-out: Minimum inhibitory concentration (MIC). The essentials:
as §1

Assay [9] concerns Staphylococcus epidermidis IAM-1296. Briefly: Minimum inhibitory concentration (MIC). It is filed as cell-based. The note with it: Staphylococcus epidermidis, IAM1296, Staphylococcus epidermidis IAM-1296, Gram +. Put shortly: as §1
Assay [10] concerns Streptococcus faecalis IID 682. The assay can be described thus: Minimum inhibitory concentration (MIC). In kind it is cell-based. Conditions: Enterococcus faecalis, IID682, Streptococcus faecalis IID 682, Gram +. Put shortly:
as §1

In the next assay the test system is bacteria. Conditions: prior art, U.S. Pat. No. 4,382,892; cited from earlier work.

With `CC1COc2c(N3CCN(C)CC3)c(F)cc3c(=O)c(C(=O)O)cn1c23` (racemic) [Ofloxacin, reference compound], the MIC in assay [1] turned out to be 0.39 µg/mL (≈ 1.08 µM); in [2], 0.1 µg/mL (≈ 0.277 µM); in assay [3], 0.1 µg/mL (≈ 0.277 µM); in [4], 0.39 µg/mL (≈ 1.08 µM); with Proteus vulgaris OX-19 it was 0.05 µg/mL (≈ 0.138 µM); in assay [5], 1.56 µg/mL (≈ 4.32 µM). The MIC turned out to be 0.05 µg/mL (≈ 0.138 µM) in assay [6]; 0.78 µg/mL (≈ 2.16 µM) in [7]; 0.39 µg/mL (≈ 1.08 µM) in [8]; 0.78 µg/mL in assay [9]; 1.56 µg/mL in assay [10]. Besides, the “antibacterial activity (in words)” value with bacteria is recorded as “excellent antibacterial activity”.
